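Compound exposure: 48 hours, 5 concentrations, 96-well plates. Here, GI50 denotes the concentration required for 50% inhibition of growth. The concentration for full growth arrest is given as TGI.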
What was measured:
Experiment in all cases: inhibition of tumour cell growth, NCI panel, 48 h
HCT-15 colon = tested on: HCT-15 colon
MDA-MB-231 breast = tested on: MDA-MB-231 breast
SN12C renal = tested on: SN12C renal
OVCAR-5 ovarian = tested on: OVCAR-5 ovarian
SK-MEL-28 melanoma = tested on: SK-MEL-28 melanoma
SK-OV-3 ovarian = tested on: SK-OV-3 ovarian
786-0 renal = tested on: 786-0 renal
SR leukemia = tested on: SR leukemia
NCI-H23 lung = tested on: NCI-H23 lung
HS 578T breast = tested on: HS 578T breast

SMILES | GI50 (HCT-15 colon) | TGI (HCT-15 colon) | GI50 (MDA-MB-231 breast) | TGI (MDA-MB-231 breast) | GI50 (SN12C renal) | TGI (SN12C renal) | GI50 (OVCAR-5 ovarian) | TGI (OVCAR-5 ovarian) | GI50 (SK-MEL-28 melanoma) | TGI (SK-MEL-28 melanoma) | GI50 (SK-OV-3 ovarian) | TGI (SK-OV-3 ovarian) | GI50 (786-0 renal) | TGI (786-0 renal) | GI50 (SR leukemia) | TGI (SR leukemia) | GI50 (NCI-H23 lung) | TGI (NCI-H23 lung) | GI50 (HS 578T breast) | TGI (HS 578T breast)
CCN(CC)CCS(=O)(=O)CCNc1ccnc2cc(Cl)ccc12 | 2.33 µM | > 38.1 µM | 3.1 µM | > 100 µM | 3.25 µM | > 100 µM | 3.97 µM | > 100 µM | 4.97 µM | 25.7 µM | 6.58 µM | 70.2 µM | 2.84 µM | 19.9 µM | 0.812 µM | > 46.3 µM | 2.1 µM | 14.9 µM | 4.07 µM | > 100 µM
Nc1n[nH]c2ccc([C@@H]3Nc4c(F)cc5[nH]ncc5c4[C@H]4C5CCC(C5)[C@@H]34)cc12 (some centres undefined) | 0.222 µM | > 41.5 µM | 0.732 µM | > 47 µM | 0.544 µM | > 54.9 µM | 0.612 µM | > 55.7 µM | 2.19 µM | > 60.7 µM | 0.686 µM | > 58.2 µM | 0.74 µM | 25 µM | 0.0779 µM | 15.1 µM | 0.46 µM | 21.8 µM | 0.178 µM | 8.78 µM
Cc1n(Cc2ccc3ccccc3n2)cc[n+]1Cc1ccc2ccccc2c1 | 20.4 µM | > 75.9 µM | 0.665 µM | 4.08 µM | 0.518 µM | 11 µM | 1.67 µM | 13 µM | 0.975 µM | 7 µM | 1.16 µM | 5.03 µM | 4.36 µM | 18.2 µM | 0.565 µM | 3.24 µM | 0.935 µM | 9.81 µM | 1.18 µM | 9.72 µM
CCc1c(C#N)c(SC(C(N)=O)c2ccccc2)nc(N2CCC(N)CC2)c1C#N (centres undefined) | 53.5 µM | > 100 µM | 14.7 µM | 28 µM | 13.1 µM | 26 µM | 15.5 µM | 31.7 µM | 14.7 µM | 27.9 µM | 15.7 µM | 29.8 µM | 14.8 µM | 28.3 µM | 16.2 µM | 38.1 µM | 16.4 µM | 31 µM | 14.1 µM | 41.1 µM
O=C(O)Cn1ccc(=O)c2c([N+](=O)[O-])cccc21 |  | > 100 µM |  | > 100 µM |  | > 100 µM |  | > 100 µM |  | > 100 µM |  | > 100 µM |  | > 100 µM |  | > 100 µM |  | > 100 µM |  | > 100 µM
Nc1ccn([C@@H]2S[C@H](CO)[C@@H](O)[C@@H]2F)c(=O)n1 | 0.413 µM | > 100 µM | > 100 µM | > 100 µM | 0.0405 µM | > 100 µM | 0.509 µM | > 100 µM | > 100 µM | > 100 µM | 0.352 µM | > 100 µM | 0.109 µM |  | 0.0575 µM | > 100 µM | 0.0586 µM | > 49 µM | > 100 µM | > 100 µM
Cc1ccc(C(=O)N2C/C(=C/c3ccccc3)C(=O)/C(=C/c3ccccc3)C2)cc1 | 3.13 µM | > 100 µM | 4.61 µM | > 77.2 µM | 7.34 µM | > 100 µM | > 75.5 µM | > 100 µM | 8.98 µM | 68.9 µM | 8.64 µM | > 100 µM | 3.52 µM | 15.2 µM | 0.461 µM | 9.09 µM | 8.86 µM | > 100 µM | 4.48 µM | 50.7 µM
Oc1ccc(-c2[nH]c3ccccc3c2-c2nc3ccccc3o2)cc1 | 2.97 µM | 13.1 µM | 1.47 µM | 5.64 µM | 4.88 µM | 18.5 µM | 4.49 µM | 17.2 µM | 4.83 µM | 17.9 µM | 5.03 µM | 17.3 µM | 4.4 µM | 15.2 µM | 4.78 µM | 25.7 µM | 2.26 µM | 9.88 µM | 2.47 µM | 18.4 µM
COc1cc2c(cc1OC)C(SC)C(=O)N(Cc1cccc(OC)c1OC)CC2 (centres undefined) |  | > 74 µM |  | > 100 µM |  | > 100 µM |  | 98.3 µM |  | > 42.3 µM |  | > 100 µM |  | > 100 µM |  | 24.1 µM |  | 18.2 µM |  | > 24.6 µM
COc1cc(OC)c(/C=C/C(=O)c2c(N)cc(OC)cc2OC)c(OC)c1 | 0.369 µM | > 100 µM | 1.35 µM | > 100 µM | 0.719 µM | > 100 µM | 2.51 µM | > 100 µM | 2.18 µM | > 100 µM | 0.767 µM | > 100 µM | 1.49 µM | > 75 µM | 0.242 µM | > 100 µM | 0.826 µM | > 100 µM | 2.42 µM | > 82 µM
Cc1cc2c(cc1C)[n+](=O)c(C(=O)/C=C/c1ccccc1[N+](=O)[O-])c(C)n2[O-] |  | > 100 µM |  | > 100 µM |  | > 100 µM |  | > 100 µM |  | > 100 µM |  | > 68.6 µM |  | 68.4 µM |  | > 95.7 µM |  | 63 µM |  | > 77.2 µM
CC/C(=C(/c1ccc(/C=C/C(=O)O)cc1)c1ccc2[nH]ncc2c1)c1ccc(F)cc1Cl | 7.45 µM | 22 µM | 16.2 µM | 34.6 µM | 14.7 µM | 44.6 µM | 17.5 µM | 35.9 µM | 7.25 µM | 22.2 µM | 16.7 µM | 30.8 µM | 7.83 µM | 21.1 µM | 4.03 µM | 29.4 µM | 15.4 µM | 37.8 µM | 8.63 µM | 38.7 µM
COC(=O)C1=Nc2ccc(F)cc2/C1=C/c1sc(=S)[nH]c1O | 0.0663 µM | > 100 µM | 0.358 µM | 4.26 µM | 0.354 µM | > 26.3 µM | 0.91 µM | > 100 µM | 1.06 µM | > 83.5 µM | 0.513 µM | 31.3 µM | 0.122 µM | 15.1 µM | 0.0476 µM | > 100 µM | 0.408 µM | > 100 µM | 0.0518 µM | 21.6 µM
CCc1ccc(C2=NN(c3ccc(S(C)(=O)=O)cc3)C(=O)CC2)cc1 | 1.38 µM | > 100 µM | 3.32 µM | > 60.2 µM | 7.34 µM | > 100 µM | 6.47 µM | > 100 µM | 1.59 µM | > 100 µM | 2.34 µM | 12.4 µM | 4.39 µM | 54.4 µM | 0.42 µM | 21.7 µM | 1.85 µM | > 24.3 µM | 0.977 µM | 7.77 µM
Nc1c(C(=O)Nc2ccccn2)sc2nc3c(cc12)CCCCCC3 | 0.254 µM | 11.1 µM | 2.5 µM | 15.2 µM | 3.17 µM | 37.3 µM | 2.67 µM | 17.9 µM | 1.63 µM | 19.6 µM | 1.91 µM | 15.2 µM | 0.776 µM | 6.24 µM | 0.197 µM | > 50 µM | 2.25 µM | > 50 µM | 0.935 µM | 12.4 µM
O=c1c2ccccc2n2cnc3ccc(NCCNCCO)c1c32 |  | 13.7 µM |  | 6.58 µM |  | 17 µM |  | 5.84 µM |  | 11 µM |  | 19.6 µM |  | 10.4 µM |  | > 33.6 µM |  | 8.12 µM |  | 6.26 µM
CCN(CCNc1ccc(C)c2sc3cc(Cl)ccc3c(=O)c12)CC(C)(C)O | 3.3 µM | 12 µM | 2.31 µM | 11.5 µM | 20.8 µM | > 100 µM | 10.5 µM | 27.7 µM | 2.09 µM | 4.34 µM | 6.21 µM | 20.4 µM | 5.13 µM | 17.7 µM | 9.48 µM | > 100 µM | 6.88 µM | 24.1 µM | 5.01 µM | 21.2 µM
CC1=NN(c2nc(N)nc(/C=C\c3ccccc3)n2)C(C)(C)C1 | 3.27 µM | 44.7 µM | 6.46 µM | 22.5 µM | 13.1 µM | 26.6 µM | 20.7 µM | 36.5 µM | 9.41 µM | 22.3 µM | 6.66 µM | 36.1 µM | 15 µM | 29.3 µM | 6.12 µM | 27.8 µM | 4.37 µM | 18 µM | 13.5 µM | 77.5 µM
